Counter-ions that a name gives are not always drawn.
Tests used:
Dopamine D1 = Dopamine D1 (Homo sapiens, UniProt P21728); experiment: Dopamine D1 binding
Text: (§1) Further, the compounds of the invention may be tested in binding assays and functional activity assays by well known methods for other physiologically important receptors such as, but not limited to, the hERG channel, other serotonin receptors (specifically 5-HT1B and 5-HT1D receptors, lack of agonist activity at 5-HT2B receptors, 5-HT2C, 5-HT5, 5-HT6, and 5-HT7 receptors), dopaminergic receptors (specifically D1, D2, and D3), GABAA receptors, adrenergic receptors and monoamine transporters.

5-HT2B [1] = target: T1, 5-HT2B (Homo sapiens, UniProt P41595); experiment: 5-HT2B agonist functional activity; assay type: biochemical; conditions: agonist mode
Text: as §1

[2] = target: T2, recombinant H1 receptor (human) (Homo sapiens, UniProt P35367); experiment: H1 competition binding assay ([3H]-Pyrilamine, SPA)
T2 construct: expressed in transfected cells; host or cells: HEK-293
Method: [^3H]-Pyrilamine binding experiments are carried out in SPA (scintillation proximity assay) 96-well format. Membranes used in this assay are prepared from HEK-293 cells stably expressing recombinant H1 receptor (human). The incubation is initiated by the addition of a mixture of WGA PVT SPA beads (1 mg/well, Perkin Elmer (MA, USA) RPNQ0001) and 3 μg membranes to assay buffer (67 mM Tris; pH 7.6) containing 3.5 nM [^3H]-Pyrilamine and varying concentrations of the test compound (10 point concentration response curves). Non-specific binding is determined in the presence of 10 μM Triprolidine. Samples are incubated for 4 hr. at room temperature (22° C.) and then read in a Microbeta® Trilux.
(§2) Binding data analysis Curves are evaluated using a 4-parameter logistic nonlinear equation to obtain the concentration of competitor causing 50% inhibition of radioligand binding (IC50). Equilibrium dissociation constants (Ki) are calculated according to the equation Ki=IC50/(1+L/Kd), where L equals the concentration of radioligand used in the experiment and Kd equals the equilibrium dissociation constant of the radioligand for the receptor, determined from standard saturation analysis or homologous competition experiments. Reported values for Ki, where n values are indicated, are shown as geometric mean±the standard error of the mean (SEM), with the number of replicate determinations indicated by n. […]

[3] = target: T3, recombinant 5-HT2C receptor (human) (Homo sapiens, UniProt P28335); experiment: 5-HT2C competition binding assay ([125I]-(±)DOI, SPA)
T3 construct: expressed in transfected cells; host or cells: AV-12
Method: [^125I]-(±)DOI binding experiments are carried out in SPA 96-well format. Membranes used in this assay are prepared from AV-12 cells stably expressing recombinant 5-HT2C receptor (human). The incubation is initiated by the addition of a mixture of WGA PVT SPA beads (0.5 mg/well, Perkin Elmer (MA, USA), RPNQ0001) and 2.5 μg membranes to assay buffer (50 mM Tris-HCl, 10 mM MgCl2, 0.5 mM EDTA, 10 μM pargyline, 0.1% ascorbic acid, pH7.4) containing 0.2 nM [[^125I]-(±)DOI and varying concentrations of the test compound (10 point concentration response curves). Non-specific binding is determined in the presence of 20 μM 1-(1-naphthyl) piperazine. Samples are incubated for 4 hr. at room temperature (22° C.) and then read in a Microbeta® Trilux.
as §2, with “experiments.” for “experiments. Reported values for Ki, where n values are indicated, are shown as geometric mean±the standard error of the mean (SEM), with the number of replicate determinations indicated by n.”

Serotonin Transporter = Serotonin Transporter (Homo sapiens, UniProt P31645); experiment: Serotonin transporter binding
Text: as §1

hERG Channel = hERG Channel (Homo sapiens, UniProt Q12809); experiment: hERG channel inhibition; conditions: inhibition at 10 μM
Text: as §1

5-HT2B [4] = target: T1, 5-HT2B; experiment: 5-HT2B antagonist functional activity; assay type: biochemical; conditions: antagonist mode
Text: as §1

T1 sequence (P41595 whole entry, species assumed): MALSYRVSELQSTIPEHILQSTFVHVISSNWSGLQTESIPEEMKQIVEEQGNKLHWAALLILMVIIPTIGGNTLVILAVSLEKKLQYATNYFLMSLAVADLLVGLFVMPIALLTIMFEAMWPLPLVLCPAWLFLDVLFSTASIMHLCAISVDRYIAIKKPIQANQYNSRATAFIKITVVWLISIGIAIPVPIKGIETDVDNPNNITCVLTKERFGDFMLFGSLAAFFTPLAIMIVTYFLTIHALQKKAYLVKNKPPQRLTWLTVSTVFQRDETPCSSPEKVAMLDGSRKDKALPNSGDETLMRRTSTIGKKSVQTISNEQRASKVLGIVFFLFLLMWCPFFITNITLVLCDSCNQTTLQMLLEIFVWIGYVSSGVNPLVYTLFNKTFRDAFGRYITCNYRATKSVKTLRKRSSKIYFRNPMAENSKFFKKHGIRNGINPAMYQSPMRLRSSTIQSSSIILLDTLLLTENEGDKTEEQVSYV
T3 sequence (P28335 33-458): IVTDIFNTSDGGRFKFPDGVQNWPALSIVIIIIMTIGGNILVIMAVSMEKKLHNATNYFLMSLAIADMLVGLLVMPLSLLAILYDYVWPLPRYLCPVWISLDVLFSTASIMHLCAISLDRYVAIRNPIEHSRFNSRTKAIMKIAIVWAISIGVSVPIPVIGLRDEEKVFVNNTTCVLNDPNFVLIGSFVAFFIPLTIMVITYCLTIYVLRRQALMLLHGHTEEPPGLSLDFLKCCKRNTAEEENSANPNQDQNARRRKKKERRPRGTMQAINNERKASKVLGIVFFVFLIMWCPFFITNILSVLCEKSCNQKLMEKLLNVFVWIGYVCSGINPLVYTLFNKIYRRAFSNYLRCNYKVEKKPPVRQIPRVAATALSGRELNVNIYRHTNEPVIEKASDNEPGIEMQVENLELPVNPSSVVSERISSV
T2 sequence (P35367 whole entry): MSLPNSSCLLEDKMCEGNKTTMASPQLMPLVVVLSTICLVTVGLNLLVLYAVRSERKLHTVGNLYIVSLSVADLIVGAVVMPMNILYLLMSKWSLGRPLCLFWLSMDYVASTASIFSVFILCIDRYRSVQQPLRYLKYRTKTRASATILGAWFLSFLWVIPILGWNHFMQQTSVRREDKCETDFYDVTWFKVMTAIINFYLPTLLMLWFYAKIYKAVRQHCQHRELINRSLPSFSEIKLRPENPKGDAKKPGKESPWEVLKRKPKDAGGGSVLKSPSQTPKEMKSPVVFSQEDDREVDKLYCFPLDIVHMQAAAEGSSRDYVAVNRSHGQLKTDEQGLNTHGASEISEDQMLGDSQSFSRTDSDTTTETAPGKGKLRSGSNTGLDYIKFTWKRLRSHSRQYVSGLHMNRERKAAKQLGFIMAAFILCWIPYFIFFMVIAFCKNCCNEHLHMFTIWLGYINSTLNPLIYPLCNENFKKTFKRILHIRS
Sequence of Dopamine D1 (P21728 whole entry): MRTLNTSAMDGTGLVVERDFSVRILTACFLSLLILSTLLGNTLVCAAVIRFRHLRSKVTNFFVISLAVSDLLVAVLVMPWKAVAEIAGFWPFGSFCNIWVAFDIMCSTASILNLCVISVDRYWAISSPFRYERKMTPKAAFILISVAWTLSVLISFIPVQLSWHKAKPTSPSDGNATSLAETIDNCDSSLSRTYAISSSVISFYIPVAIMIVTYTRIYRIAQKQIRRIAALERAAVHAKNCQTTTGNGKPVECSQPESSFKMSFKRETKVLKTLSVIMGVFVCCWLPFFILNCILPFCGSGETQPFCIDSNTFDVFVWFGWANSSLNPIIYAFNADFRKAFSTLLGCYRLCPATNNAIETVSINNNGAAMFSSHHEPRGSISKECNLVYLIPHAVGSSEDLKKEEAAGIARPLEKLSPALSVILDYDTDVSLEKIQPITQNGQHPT
Sequence of Serotonin Transporter (P31645 whole entry): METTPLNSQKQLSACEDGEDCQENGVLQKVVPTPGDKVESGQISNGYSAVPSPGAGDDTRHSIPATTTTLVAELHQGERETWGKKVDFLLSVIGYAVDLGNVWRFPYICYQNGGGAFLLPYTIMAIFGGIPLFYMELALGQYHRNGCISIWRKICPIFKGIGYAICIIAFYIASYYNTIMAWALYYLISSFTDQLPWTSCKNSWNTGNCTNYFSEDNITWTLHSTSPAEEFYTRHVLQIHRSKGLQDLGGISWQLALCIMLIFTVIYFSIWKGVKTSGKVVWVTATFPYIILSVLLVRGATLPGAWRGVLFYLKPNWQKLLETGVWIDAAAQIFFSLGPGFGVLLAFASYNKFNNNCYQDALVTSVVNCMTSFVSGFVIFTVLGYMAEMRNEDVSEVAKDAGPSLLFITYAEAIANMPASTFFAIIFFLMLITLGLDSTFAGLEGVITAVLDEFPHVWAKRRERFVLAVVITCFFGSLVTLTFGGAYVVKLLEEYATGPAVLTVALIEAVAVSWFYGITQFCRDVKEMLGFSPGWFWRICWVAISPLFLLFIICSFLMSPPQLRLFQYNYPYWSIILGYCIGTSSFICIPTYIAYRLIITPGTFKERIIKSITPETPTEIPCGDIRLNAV
Sequence of hERG Channel (Q12809 whole entry): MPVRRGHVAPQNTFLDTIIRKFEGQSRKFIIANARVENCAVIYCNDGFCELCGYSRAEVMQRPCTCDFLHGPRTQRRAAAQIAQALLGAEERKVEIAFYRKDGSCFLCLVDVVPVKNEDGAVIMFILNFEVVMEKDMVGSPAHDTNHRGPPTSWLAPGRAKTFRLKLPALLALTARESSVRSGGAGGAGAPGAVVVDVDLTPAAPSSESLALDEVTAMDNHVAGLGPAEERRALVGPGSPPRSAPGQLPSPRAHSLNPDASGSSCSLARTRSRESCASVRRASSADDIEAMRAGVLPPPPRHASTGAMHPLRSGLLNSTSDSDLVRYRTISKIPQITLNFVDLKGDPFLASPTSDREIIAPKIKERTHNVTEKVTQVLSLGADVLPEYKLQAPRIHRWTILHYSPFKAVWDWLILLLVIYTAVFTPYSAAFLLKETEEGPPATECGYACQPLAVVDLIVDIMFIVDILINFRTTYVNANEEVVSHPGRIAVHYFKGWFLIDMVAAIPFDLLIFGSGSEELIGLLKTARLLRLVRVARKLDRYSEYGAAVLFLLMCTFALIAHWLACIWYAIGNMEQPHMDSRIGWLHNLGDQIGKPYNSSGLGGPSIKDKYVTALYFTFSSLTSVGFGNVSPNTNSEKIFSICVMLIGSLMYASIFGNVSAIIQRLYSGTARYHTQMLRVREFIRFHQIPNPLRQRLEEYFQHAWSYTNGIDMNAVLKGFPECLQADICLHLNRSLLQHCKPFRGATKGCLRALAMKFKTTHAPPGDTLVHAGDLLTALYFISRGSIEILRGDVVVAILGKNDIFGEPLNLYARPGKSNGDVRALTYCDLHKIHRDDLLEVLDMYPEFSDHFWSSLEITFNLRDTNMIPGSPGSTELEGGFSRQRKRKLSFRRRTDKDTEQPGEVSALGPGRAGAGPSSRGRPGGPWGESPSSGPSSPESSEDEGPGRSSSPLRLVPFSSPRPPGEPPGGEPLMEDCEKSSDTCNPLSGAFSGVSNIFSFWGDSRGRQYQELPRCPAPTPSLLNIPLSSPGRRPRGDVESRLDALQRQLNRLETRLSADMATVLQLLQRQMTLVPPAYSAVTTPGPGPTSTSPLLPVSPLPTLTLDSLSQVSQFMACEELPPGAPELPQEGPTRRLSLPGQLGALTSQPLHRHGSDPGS

Question: `Cc1ccc2c(c1)Oc1sc(C3CC3)cc1C(N1CCN(CC(C)(C)C(=O)O)CC1)=N2` [Example 2, 3-[4-(2-Cyclopropyl-8-methyl-thieno[2,3-b][1,5]benzoxazepin-4-yl)piperazin-1-yl]-2,2-dimethyl-propanoic acid dihydrochloride] was tested. Which Ki (Dopamine D1) did it give?
Answer: The Ki was 0.996 µM.

Question: What about the EC50 (5-HT2B [1]) of the same compound?
Answer: The EC50 was > 10 µM.

Question: And the Ki [2]?
Answer: The Ki was 0.0432 µM.

Question: What about the Ki [3] of the same compound?
Answer: Its Ki is 0.493 µM.

Question: And the Ki (Serotonin Transporter)?
Answer: The Ki was > 0.478 µM.

Question: And the “hERG Channel (μM)” value (hERG Channel)?
Answer: The value was 53% inhibition.

Question: And the Kb (5-HT2B [4])?
Answer: The Kb was 0.0934 µM.

Reference: patent US9562057B2, “(Thieno[2,3-b][1,5]benzoxazepin-4-yl)piperazin-1-yl compounds as dual activity H1 inverse agonists/5-HT2A antagonists” (Eli Lilly and Company, priority 2013, dated 2017)
